Data set [1] is described as follows: Randomised controlled trials of folic acid: plasma homocysteine reduction. It counts as in vivo, human. The note with it: unpublished randomised controlled trial performed by the applicant.
The conditions of data set [2]: cited from earlier work.
The nature of data set [3]: Prevalence of adverse effects in randomised placebo controlled trials (treated minus control). It counts as in vivo, human. To be noted: daily dose: hydrochlorothiazide 12.5 mg, atenolol 25 mg, enalapril 5 mg, aspirin 75 mg; for Prevalence of any adverse effect in randomised trials (treated minus control) / Prevalence of serious adverse effects (those that warranted withdrawal from randomised trial) (treated minus control): atorvastatin 10 mg, folic acid 0.8 mg. From the text: The dose of each medication has been chosen to maximise the ratio of benefit to hazard. It is recognised that some persons taking a combination of six drugs would develop adverse effects that were unacceptable. The adverse effects attributable to each of the component medications would be made clear to persons taking the combined formulation and alternative formulations omitting one or more of the component ingredients, with or without a substitute ingredient, would be available for persons unable to tolerate one component. […]

Data set [4] can be described thus: Expected reduction in risk of stroke from the risk factor change (cohort studies and randomised trials). It counts as in vivo, human. The note with it: daily dose: hydrochlorothiazide 12.5 mg, atenolol 25 mg, enalapril 5 mg, atorvastatin 10 mg, aspirin 75 mg, folic acid 0.8 mg. From the text:
This combined estimate is based on the fact that the effects on the four different risk factors are unrelated and so the expected effects of changing each one will be independent of each other. This expectation is supported by two classes of evidence. […] For example the ratio of the risk of a disease event in persons with high blood pressure and the risk in persons with low blood pressure is similar, irrespective of the values of serum cholesterol and other risk factors. Second, some randomised clinical trials have used combinations of two of the drugs (for example beta blockers and aspirin) in patients with ischaemic heart disease and have shown that the effects are independent (that is, the relative risk in patients who took two drugs (compared with the risk in those who took none) was similar to the relative risk in persons taking one of the drugs multiplied by the relative risk in persons taking the other drug). Accordingly, the effect of the different drugs in combination in Table 3 has been calculated by multiplying the effects of each as shown in footnotes h and j.
The corresponding reductions in incidence of ischaemic heart disease and stroke are those to be expected from the blood pressure reductions, from published analyses of cohort studies and randomised controlled trials of blood pressure and ischaemic heart disease and stroke (references 1, 5).

The conditions of data set [5]: randomised trials, high risk and low risk persons; platelet function not measured; cited from earlier work.
The conditions of data set [6]: atorvastatin 10 mg daily; cited from earlier work.

Marks after values point to notes of the source that are not given here. A value given as a limit tells only on which side of the number the result lay.

As for `Nc1nc2ncc(CNc3ccc(C(=O)N[C@@H](CCC(=O)O)C(=O)O)cc3)nc2c(=O)[nH]1` [Folic acid], the “Lowest folic acid dose that produces the maximum reduction in homocysteine” value in data set [1] is 0.8 mg. In addition, the “Associated physiological variable (reduction produced by drug): plasma/serum homocysteine” value in data set [2] (folic acid 0.8 mg daily) is given as “(3 μmol/l”. The “Maximum reduction in plasma homocysteine” value in data set [2] (meta-analysis of published trials, folic acid doses between 1 mg and 5 mg, maximum produced by 1 mg) is 3 µmol/L. For the same compound, in data set [3], the “Prevalence of any adverse effect in randomised trials (treated minus control)” value was under 0.1% and the “Prevalence of serious adverse effects (those that warranted withdrawal from randomised trial) (treated minus control)” value was under 0.1%. Besides, the “Expected reduction in risk of stroke” value in data set [4] was 10%^g.
On to `NS(=O)(=O)c1cc2c(cc1Cl)NCNS2(=O)=O` [Hydrochlorothiazide], for which, in data set [3], the “Prevalence of any adverse effect in randomised trials (treated minus control)” value amounted to 1.4%^a and the “Prevalence of serious adverse effects (those that warranted withdrawal from randomised trial) (treated minus control)” value is listed as 0.1%^a.
The matching figures for `CC(C)NCC(O)COc1ccc(CC(N)=O)cc1` (centres unmarked) [Atenolol]: 5.6%^a and 0.9%^a.
Regarding `CC(=O)Oc1ccccc1C(=O)O` [Aspirin], in data set [5], the “Effect on the incidence of heart attacks and stroke” value was “reduces the incidence of heart attacks and stroke in both high risk and low risk persons”. Further, in data set [3], the “Prevalence of any adverse effect in randomised trials (treated minus control)” value stood at 1.8%^b and the “Prevalence of serious adverse effects (those that warranted withdrawal from randomised trial) (treated minus control)” value was determined as 0.7%^b.
Regarding `CCOC(=O)[C@H](CCc1ccccc1)N[C@@H](C)C(=O)N1CCC[C@H]1C(=O)O` [Enalapril], in data set [3], the Commonest adverse effects result is recorded as “cough”, the “Prevalence of any adverse effect in randomised trials (treated minus control)” value is 2.1%^a and the “Prevalence of serious adverse effects (those that warranted withdrawal from randomised trial) (treated minus control)” value turned out to be 0.2%^a.
For `CC(C)c1c(C(=O)Nc2ccccc2)c(-c2ccccc2)c(-c2ccc(F)cc2)n1CC[C@@H](O)C[C@@H](O)CC(=O)O` [Atorvastatin], the “Associated physiological variable (reduction produced by drug): serum cholesterol” value in data set [6] is listed as “(1.8 mmol/l”. For the same compound, in data set [3], the “Prevalence of any adverse effect in randomised trials (treated minus control)” value stood at 0.1% and the “Prevalence of serious adverse effects (those that warranted withdrawal from randomised trial) (treated minus control)” value was under 0.1%. Further, the “Expected reduction in risk of stroke” value in data set [4] came out at 50%^d.

(Values after US8470868B2, “Formulation for the prevention of cardiovascular disease” (priority 2000, dated 2013).)
